Counter-ions that a name gives are not always drawn.
System: rhinocerase
Settings: read-out: Km ^a; 0.1M Tris-HCl pH 7.4, 37°C, 7 min; 100 µg enzyme

Structure (SMILES): Cc1cc(=O)oc2cc(NC(=O)[C@H](CCCNC(=N)N)NC(=O)c3ccccc3)ccc12 [Arg-AMC, Nα-benzoyl-L-arginine 7-amido-4-methylcoumarin.HCl]
- Km: 80 ± 2.02 µM
